According to US20100298141A1, “SUBSTITUTED PYRIDINE N-OXIDE HERBICIDES” (E. I. DU PONT DE NEMOURS AND COMPANY, priority 2007, published 2010):

Assays:
itchgrass = test: Test G preemergence test; type: in vivo, Rottboellia cochinchinensis; details: scale 0 to 100
rice = test: Test B flooded paddy test; type: in vivo, Oryza sativa; details: Flood, 250 g ai/ha, 13 to 15 days; scale 0 to 100, 0 no effect, 100 complete control
From the text: (§1) At time of treatment, test pots were flooded to 3 cm above the soil surface, treated by application of test compounds directly to the paddy water, and then maintained at that water depth for the duration of the test. Treated plants and controls were maintained in a greenhouse for 13 to 15 days, after which time all species were compared to controls and visually evaluated. […] A dash (-) response means no test result.

goosegrass = test: Test G preemergence test; type: in vivo, Eleusine indica; details: scale 0 to 100
winter barley = test: Test D preemergence test; type: in vivo, Hordeum vulgare
Procedure, shortened: (§2)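 Test chemicals, in a non-phytotoxic solvent blend with surfactant, were applied preemergence to planted seeds; where no result was obtained, a dash is shown.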

spring wheat = test: Test D preemergence test; type: in vivo, Triticum aestivum; details: scale 0 to 100
Procedure, shortened: as §2

winter wheat = test: Test D preemergence test; type: in vivo, Triticum aestivum; details: scale 0 to 100
Procedure, shortened: as §2

broadleaf signalgrass = test: Test G preemergence test; type: in vivo, Brachiaria platyphylla; details: scale 0 to 100
wild oat = test: Test D preemergence test; type: in vivo, Avena fatua; details: scale 0 to 100
Procedure, shortened: as §2

yellow foxtail = test: Test G preemergence test; type: in vivo, Pennisetum glaucum; details: scale 0 to 100
giant foxtail = test: Test G preemergence test; type: in vivo, Setaria faberii; details: scale 0 to 100
field violet = test: Test D preemergence test; type: in vivo, Viola arvensis; details: scale 0 to 100
Procedure, shortened: as §2

large crabgrass = test: Test G preemergence test; type: in vivo, Digitaria sanguinalis; details: scale 0 to 100
littleseed canarygrass = test: Test D preemergence test; type: in vivo, Phalaris minor; details: scale 0 to 100
Procedure, shortened: as §2

Italian ryegrass = test: Test D preemergence test; type: in vivo, Lolium multiflorum; details: scale 0 to 100
Procedure, shortened: as §2

millet foxtail = test: Test G preemergence test; type: in vivo, Setaria italica; details: scale 0 to 100
fall panicum = test: Test G preemergence test; type: in vivo, Panicum dichotomiflorum; details: scale 0 to 100
annual bluegrass = test: Test D preemergence test; type: in vivo, Poa annua; details: scale 0 to 100
Procedure, shortened: as §2

eastern black nightshade = test: Test G preemergence test; type: in vivo, Solanum ptycanthum; details: scale 0 to 100
umbrella sedge = test: Test B flooded paddy test; type: in vivo, Cyperus difformis; details: Flood, 250 g ai/ha, 13 to 15 days; scale 0 to 100, 0 no effect, 100 complete control
From the text: as §1

millet = test: Test G preemergence test; type: in vivo, Panicum miliaceum; details: scale 0 to 100
yellow nutsedge = test: Test G preemergence test; type: in vivo, Cyperus esculentus; details: scale 0 to 100
downy bromegrass = test: Test D preemergence test; type: in vivo, Bromus tectorum; details: scale 0 to 100
Procedure, shortened: as §2

cotton = test: Test G preemergence test; type: in vivo, Gossypium hirsutum; details: scale 0 to 100
woolly cupgrass = test: Test G preemergence test; type: in vivo, Eriochloa villosa; details: scale 0 to 100
sorghum = test: Test G preemergence test; type: in vivo, Sorghum vulgare; details: scale 0 to 100

## Cc1cc[n+]([O-])c([S+]([O-])Cc2c(C(F)(F)F)nn(C)c2OC(F)F)c1 (stereo not shown) [Compound 1]
itchgrass; 31 g ai/ha
  Plant response rating, Itchgrass: 20
itchgrass; 62 g ai/ha
  Plant response rating, Itchgrass: 35
itchgrass; 125 g ai/ha
  Plant response rating, Itchgrass: 40
itchgrass; 250 g ai/ha
  Plant response rating, Itchgrass: 60
rice
  Plant response rating, Rice, Transplanted: 80
goosegrass; 31 g ai/ha
  Plant response rating, Goosegrass: 70
goosegrass; 62 g ai/ha
  Plant response rating, Goosegrass: 90
goosegrass; 125 g ai/ha
  Plant response rating, Goosegrass: 100
goosegrass; 250 g ai/ha
  Plant response rating, Goosegrass: 100
Winter barley; Preemergence, 62 g ai/ha, scale 0 to 100
  Plant response rating, Barley: 0
Winter barley; Preemergence, 125 g ai/ha, scale 0 to 100
  Plant response rating, Barley: 40
Winter barley; Preemergence, 31 g ai/ha, scale 0 to 100
  Plant response rating, Barley: 0
Winter barley; preemergence, 250 g ai/ha, scale 0 (no effect) to 100 (complete control)
  Plant response rating, Barley: 50
Spring wheat; 31 g ai/ha
  Plant response rating, Wheat, Spring: 0
Spring wheat; 62 g ai/ha
  Plant response rating, Wheat, Spring: 0
Spring wheat; 125 g ai/ha
  Plant response rating, Wheat, Spring: 30
Spring wheat; 250 g ai/ha
  Plant response rating, Wheat, Spring: 45
Winter wheat; 31 g ai/ha
  Plant response rating, Wheat, Winter: 0
Winter wheat; 62 g ai/ha
  Plant response rating, Wheat, Winter: 5
Winter wheat; 125 g ai/ha
  Plant response rating, Wheat, Winter: 50
Winter wheat; 250 g ai/ha
  Plant response rating, Wheat, Winter: 60
Broadleaf signalgrass; 31 g ai/ha
  Plant response rating, Signalgrass: 20
Broadleaf signalgrass; 62 g ai/ha
  Plant response rating, Signalgrass: 70
Broadleaf signalgrass; 125 g ai/ha
  Plant response rating, Signalgrass: 70
Broadleaf signalgrass; 250 g ai/ha
  Plant response rating, Signalgrass: 100
Wild oat; 31 g ai/ha
  Plant response rating, Oat, Wild: 0
Wild oat; 62 g ai/ha
  Plant response rating, Oat, Wild: 0
Wild oat; 125 g ai/ha
  Plant response rating, Oat, Wild: 20
Wild oat; 250 g ai/ha
  Plant response rating, Oat, Wild: 40
Yellow foxtail; 31 g ai/ha
  Plant response rating, Foxtail, Yellow: 20
Yellow foxtail; 62 g ai/ha
  Plant response rating, Foxtail, Yellow: 100
Yellow foxtail; 125 g ai/ha
  Plant response rating, Foxtail, Yellow: 100
Yellow foxtail; 250 g ai/ha
  Plant response rating, Foxtail, Yellow: 100
Giant foxtail; 31 g ai/ha
  Plant response rating, Foxtail, Giant: 20
Giant foxtail; 62 g ai/ha
  Plant response rating, Foxtail, Giant: 95
Giant foxtail; 125 g ai/ha
  Plant response rating, Foxtail, Giant: 100
Giant foxtail; 250 g ai/ha
  Plant response rating, Foxtail, Giant: 100
Field violet; 31 g ai/ha
  Plant response rating, Field Violet: 20
Field violet; 62 g ai/ha
  Plant response rating, Field Violet: 20
Field violet; 125 g ai/ha
  Plant response rating, Field Violet: 20
Field violet; 250 g ai/ha
  Plant response rating, Field Violet: 75
Large crabgrass; 31 g ai/ha
  Plant response rating, Crabgrass, Large: 10
Large crabgrass; 62 g ai/ha
  Plant response rating, Crabgrass, Large: 100
Large crabgrass; 125 g ai/ha
  Plant response rating, Crabgrass, Large: 100
Large crabgrass; 250 g ai/ha
  Plant response rating, Crabgrass, Large: 100
Littleseed canarygrass; 31 g ai/ha
  Plant response rating, Canarygrass: 0
Littleseed canarygrass; 62 g ai/ha
  Plant response rating, Canarygrass: 100
Littleseed canarygrass; 125 g ai/ha
  Plant response rating, Canarygrass: 80
Littleseed canarygrass; 250 g ai/ha
  Plant response rating, Canarygrass: 100
Italian ryegrass; 31 g ai/ha
  Plant response rating, Ryegrass, Italian: 0
Italian ryegrass; 62 g ai/ha
  Plant response rating, Ryegrass, Italian: 20
Italian ryegrass; 125 g ai/ha
  Plant response rating, Ryegrass, Italian: 30
Italian ryegrass; 250 g ai/ha
  Plant response rating, Ryegrass, Italian: 95
Millet foxtail; 31 g ai/ha
  Plant response rating, Foxtail, Millet: 0
Millet foxtail; 62 g ai/ha
  Plant response rating, Foxtail, Millet: 100
Millet foxtail; 125 g ai/ha
  Plant response rating, Foxtail, Millet: 100
Millet foxtail; 250 g ai/ha
  Plant response rating, Foxtail, Millet: 100
Fall panicum; 31 g ai/ha
  Plant response rating, Fall Panicum: 0
Fall panicum; 62 g ai/ha
  Plant response rating, Fall Panicum: 10
Fall panicum; 125 g ai/ha
  Plant response rating, Fall Panicum: 30
Fall panicum; 250 g ai/ha
  Plant response rating, Fall Panicum: 100
Annual bluegrass; 31 g ai/ha
  Plant response rating, Bluegrass: 0
Annual bluegrass; 62 g ai/ha
  Plant response rating, Bluegrass: 75
Annual bluegrass; 125 g ai/ha
  Plant response rating, Bluegrass: 90
Annual bluegrass; 250 g ai/ha
  Plant response rating, Bluegrass: 100
Eastern black nightshade; 31 g ai/ha
  Plant response rating, Nightshade: 0
Eastern black nightshade; 62 g ai/ha
  Plant response rating, Nightshade: 30
Eastern black nightshade; 125 g ai/ha
  Plant response rating, Nightshade: 100
Eastern black nightshade; 250 g ai/ha
  Plant response rating, Nightshade: 100
Umbrella sedge
  Plant response rating, Umbrella Sedge: 100
millet; 31 g ai/ha
  Plant response rating, Millet: 0
millet; 62 g ai/ha
  Plant response rating, Millet: 25
millet; 125 g ai/ha
  Plant response rating, Millet: 20
millet; 250 g ai/ha
  Plant response rating, Millet: 100
Yellow nutsedge; 31 g ai/ha
  Plant response rating, Nutsedge, Yellow: 0
Yellow nutsedge; 62 g ai/ha
  Plant response rating, Nutsedge, Yellow: 35
Yellow nutsedge; 125 g ai/ha
  Plant response rating, Nutsedge, Yellow: 75
Yellow nutsedge; 250 g ai/ha
  Plant response rating, Nutsedge, Yellow: 40
Downy bromegrass; 31 g ai/ha
  Plant response rating, Bromegrass, Downy: 0
Downy bromegrass; 62 g ai/ha
  Plant response rating, Bromegrass, Downy: 30
Downy bromegrass; 125 g ai/ha
  Plant response rating, Bromegrass, Downy: 40
Downy bromegrass; 250 g ai/ha
  Plant response rating, Bromegrass, Downy: 40
cotton; 31 g ai/ha
  Plant response rating, Cotton: 0
cotton; 62 g ai/ha
  Plant response rating, Cotton: 10
cotton; 125 g ai/ha
  Plant response rating, Cotton: 15
cotton; 250 g ai/ha
  Plant response rating, Cotton: 20
Woolly cupgrass; 31 g ai/ha
  Plant response rating, Cupgrass, Woolly: 30
Woolly cupgrass; 62 g ai/ha
  Plant response rating, Cupgrass, Woolly: 70
Woolly cupgrass; 125 g ai/ha
  Plant response rating, Cupgrass, Woolly: 50
Woolly cupgrass; 250 g ai/ha
  Plant response rating, Cupgrass, Woolly: 100
sorghum; 31 g ai/ha
  Plant response rating, Sorghum: 0
sorghum; 62 g ai/ha
  Plant response rating, Sorghum: 0
sorghum; 125 g ai/ha
  Plant response rating, Sorghum: 40
sorghum; 250 g ai/ha
  Plant response rating, Sorghum: 50
